From patent US10722514B2 (FLX Bio, Inc., priority 2017, dated 2020)
Like-named read-outs stand apart in the source and are kept apart here.

Biological target: T1, recombinant full-length USP7 (Homo sapiens, UniProt Q93009)
T1 construct: A 25 μl reaction volume containing recombinant full-length USP7 (62 pM)
Assay: USP7-mediated ubiquitin-rhodamine cleavage assay
Type: biochemical
Details: recombinant full-length USP7 62 pM, ubiquitin-rhodamine 100 nM, 1 hour reaction at room temperature
Procedure, shortened: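 Rhodamine fluorescence read-out after acetic acid stop; IC50 by 4-parameter nonlinear regression. Enzyme at 62 pM, substrate ubiquitin-rhodamine 100 nM final, 1 h at room temperature in the dark, after 30 min compound preincubation. Buffer: HEPES pH 7.3, NaCl, TCEP, BSA; 1% DMSO.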

[1] = 30-minute pre-incubation, read-out: Potency (USP7 IC50)
[2] = 30-minute incubation with compound, read-out: Potency: USP7 IC50

T1 sequence (Q93009 whole entry): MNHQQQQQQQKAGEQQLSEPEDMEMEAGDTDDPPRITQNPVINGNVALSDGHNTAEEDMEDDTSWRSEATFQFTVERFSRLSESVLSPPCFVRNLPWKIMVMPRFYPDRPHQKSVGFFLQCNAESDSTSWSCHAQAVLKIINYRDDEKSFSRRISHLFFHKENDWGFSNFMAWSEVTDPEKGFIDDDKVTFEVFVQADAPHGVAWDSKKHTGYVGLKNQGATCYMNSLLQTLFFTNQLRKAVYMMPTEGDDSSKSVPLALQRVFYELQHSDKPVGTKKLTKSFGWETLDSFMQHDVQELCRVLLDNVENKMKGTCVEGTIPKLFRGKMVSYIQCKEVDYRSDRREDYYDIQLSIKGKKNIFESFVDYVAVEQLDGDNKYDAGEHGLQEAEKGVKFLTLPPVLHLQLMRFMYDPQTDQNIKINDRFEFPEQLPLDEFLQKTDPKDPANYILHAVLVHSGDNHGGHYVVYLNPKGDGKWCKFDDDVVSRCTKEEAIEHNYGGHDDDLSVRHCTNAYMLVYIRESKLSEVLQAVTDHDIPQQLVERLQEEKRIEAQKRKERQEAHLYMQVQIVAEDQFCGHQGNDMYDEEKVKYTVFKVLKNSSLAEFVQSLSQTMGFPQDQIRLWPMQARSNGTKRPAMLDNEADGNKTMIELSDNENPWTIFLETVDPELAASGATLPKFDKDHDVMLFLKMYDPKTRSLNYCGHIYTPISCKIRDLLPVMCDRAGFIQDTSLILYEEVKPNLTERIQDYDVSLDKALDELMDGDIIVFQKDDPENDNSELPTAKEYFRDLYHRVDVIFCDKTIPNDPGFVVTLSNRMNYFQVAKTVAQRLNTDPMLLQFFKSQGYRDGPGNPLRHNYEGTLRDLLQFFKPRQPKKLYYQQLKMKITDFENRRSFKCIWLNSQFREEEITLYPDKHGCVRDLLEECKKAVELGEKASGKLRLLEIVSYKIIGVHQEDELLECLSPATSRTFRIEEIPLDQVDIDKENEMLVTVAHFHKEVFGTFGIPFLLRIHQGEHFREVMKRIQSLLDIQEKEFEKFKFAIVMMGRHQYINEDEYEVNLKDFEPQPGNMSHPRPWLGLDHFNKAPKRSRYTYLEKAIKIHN

Structure (SMILES)	IC50 [2] [µM]	further results
Cc1cc(Cl)cc(-c2ccnc3cc(Cn4c(=O)ccn(C)c4=O)sc23)c1O[C@H]1CCCN(C)CC1 [Example 492, 3-[[7-[5-chloro-3-methyl-2-[(4S)-1-methylazepan-4-yl]oxy-phenyl]thieno[3,2-b]pyridin-2-yl]methyl]-1-methyl-pyrimidine-2,4-dione]		IC50 [1]: < 1 µM
Cc1cc(Cl)cc(-c2ccnc3cc(Cn4c(=O)ccn(CC(F)(F)F)c4=O)sc23)c1O[C@@H]1CCN(C2CCOC2)C[C@H]1C (stereo partly drawn) [Example 608, 3-[[7-[5-chloro-3-methyl-2-[[(3R,4R)-3-methyl-1-tetrahydrofuran-3-yl-4-piperidyl]oxy]phenyl]thieno[3,2-b]pyridin-2-yl]methyl]-1-(2,2,2-trifluoroethyl)pyrimidine-2,4-dione]		IC50 [1]: < 1 µM
Cc1cc(Cl)cc(-c2ncnc3cc(CN4C(=O)CN(C)C4=O)sc23)c1O[C@@H]1CNC[C@@H]1F [Example 146, 3-((4-(5-Chloro-2-(((3R,4S)-4-fluoropyrrolidin-3-yl)oxy)-3-methylphenyl)thieno[3,2-d]pyrimidin-6-yl)methyl)-1-methylimidazolidine-2,4-dione]	< 1	
COC(=O)[C@@H]1C[C@H](Oc2c(C)cc(Cl)cc2-c2ccnc3cc(Cn4c(=O)ccn(CC(F)(F)F)c4=O)sc23)CN1 [Example 652, methyl (2S,4S)-4-[4-chloro-2-[2-[[2,6-dioxo-3-(2,2,2-trifluoroethyl)pyrimidin-1-yl]methyl]thieno[3,2-b]pyridin-7-yl]-6-methyl-phenoxy]pyrrolidine-2-carboxylate]		IC50 [1]: < 1 µM
Cc1cc(Cl)cc(-c2ncnc3cc(CN4C(=O)C5C(C4=O)C5(C)C)sc23)c1O[C@@H]1CNCC[C@@H]1C (stereo partly drawn) [Example 350, 3-[[4-[5-chloro-3-methyl-2-[[(3S,4S)-4-methyl-3-piperidyl]oxy]phenyl]thieno[3,2-d]pyrimidin-6-yl]methyl]-6,6-dimethyl-3-azabicyclo[3.1.0]hexane-2,4-dione]	< 1	
CCN(CC)C(=O)CN1CC[C@@H](Oc2c(C)cc(Cl)cc2-c2ccnc3cc(Cn4c(=O)ccn(CC(F)(F)F)c4=O)sc23)[C@@H](C)C1 [Example 692, 2-[(3S,4R)-4-[4-chloro-2-[2-[[2,6-dioxo-3-(2,2,2-trifluoroethyl)pyrimidin-1-yl]methyl]thieno[3,2-b]pyridin-7-yl]-6-methyl-phenoxy]-3-methyl-1-piperidyl]-N,N-diethyl-acetamide]		IC50 (30-minute incubation, read-out: Potency (USP7 IC50)): < 1 µM
Cc1cc(Cl)cc(-c2ccnc3cc(CN4C(=O)c5cccnc5C4=O)sc23)c1O[C@H]1CCCNC1 [Example 334, 6-[[7-[5-chloro-3-methyl-2-[[(3S)-3-piperidyl]oxy]phenyl]thieno[3,2-b]pyridin-2-yl]methyl]pyrrolo[3,4-b]pyridine-5,7-dione; 2,2,2-trifluoroacetic acid]	< 1	
Cc1cc(Cl)cc(-c2ccnc3ccsc23)c1OC1CCN(C)CC1 [Example 187, 7-(5-Chloro-3-methyl-2-((1-methylpiperidin-4-yl)oxy)phenyl)thieno[3,2-b]pyridine]	10 to 30	
Cc1cc(Cl)cc(-c2ccnc3cc(Cn4c(=O)ccn(CC(F)(F)F)c4=O)sc23)c1OC1CCNCC1C(F)(F)F (stereo not drawn) [Example 272, 3-((7-(5-Chloro-3-methyl-2-((3-(trifluoromethyl)piperidin-4-yl)oxy)phenyl)thieno[3,2-b]pyridin-2-yl)methyl)-1-(2,2,2-trifluoroethyl)pyrimidine-2,4(1H,3H)-dione]	< 1	
Cc1cc(Cl)cc(-c2ncnc3cc(Cn4c(=O)ccn(CC(F)(F)F)c4=O)sc23)c1O[C@@H]1CCN(C)C[C@@H]1C [Example 528, 3-[[4-[5-chloro-2-[[(3S,4R)-1,3-dimethyl-4-piperidyl]oxy]-3-methyl-phenyl]thieno[3,2-d]pyrimidin-6-yl]methyl]-1-(2,2,2-trifluoroethyl)pyrimidine-2,4-dione]		IC50 [1]: < 1 µM
Cc1cc([N+](=O)[O-])cc(-c2ccnc3cc(Cn4c(=O)ccn(CC(F)(F)F)c4=O)sc23)c1OC1CCN(C(C)(C)C)CC1 [Example 347, 3-[[7-[2-[(1-tert-butyl-4-piperidyl)oxy]-3-methyl-5-nitro-phenyl]thieno[3,2-b]pyridin-2-yl]methyl]-1-(2,2,2-trifluoroethyl)pyrimidine-2,4-dione]	< 1	
C[C@H]1CNCC[C@H]1Oc1ccccc1-c1ccnc2cc(Cn3c(=O)ccn(CC(F)(F)F)c3=O)sc12 [Example 292, 3-[[7-[2-[[(3S,4R)-3-methyl-4-piperidyl]oxy]phenyl]thieno[3,2-b]pyridin-2-yl]methyl]-1-(2,2,2-trifluoroethyl)pyrimidine-2,4-dione]	< 1	
Cc1cc(C#N)cc(-c2ccnc3cc(CN4C(=O)CCC4=O)sc23)c1OCC1(C)CNC1 [Example 46, 3-(2-((2,5-Dioxopyrrolidin-1-yl)methyl)thieno[3,2-b]pyridin-7-yl)-5-methyl-4-((3-methylazetidin-3-yl)methoxy)benzonitrile]	< 1	
CCN1CCC(Oc2c(C)cc(Cl)cc2-c2ccnc3cc(CN4C(=O)CCC4=O)sc23)CC1 [Example 176, 1-((7-(5-Chloro-2-((1-ethylpiperidin-4-yl)oxy)-3-methylphenyl)thieno[3,2-b]pyridin-2-yl)methyl)pyrrolidine-2,5-dione]	< 1	
Cc1cc(Cl)cc(-c2ccnc3cc(CN4C(=O)CCC4=O)sc23)c1O[C@@H]1CN(CC(C)(C)C)C[C@@H]1F [Example 336, 1-[[7-[5-chloro-2-[(3R,4S)-1-(2,2-dimethylpropyl)-4-fluoro-pyrrolidin-3-yl]oxy-3-methyl-phenyl]thieno[3,2-b]pyridin-2-yl]methyl]pyrrolidine-2,5-dione]	< 1	
Cc1cc(Cl)cc(-c2ccnc3cc(Cn4c(=O)ccn(CC(F)(F)F)c4=O)sc23)c1OC1(C)CNC1 [Example 279, 3-((7-(5-Chloro-3-methyl-2-((3-methylazetidin-3-yl)oxy)phenyl)thieno[3,2-b]pyridin-2-yl)methyl)-1-(2,2,2-trifluoroethyl)pyrimidine-2,4(1H,3H)-dione]	< 1	
Cc1cc(Cl)cc(-c2ccnc3cc(Cn4c(=O)ccn(C)c4=O)sc23)c1OC1CC2CC1CN2 (stereo not drawn) [Example 476, 3-[[7-[2-(2-azabicyclo[2.2.1]heptan-5-yloxy)-5-chloro-3-methyl-phenyl]thieno[3,2-b]pyridin-2-yl]methyl]-1-methyl-pyrimidine-2,4-dione; 2,2,2-trifluoroacetic acid]		IC50 [1]: < 1 µM
Cc1cc(C#N)cc(-c2ccnc3cc(CO)sc23)c1OCC1(C)CNC1 [Example 43, 3-(2-(Hydroxymethyl)thieno[3,2-b]pyridin-7-yl)-5-methyl-4-((3-methylazetidin-3-yl)methoxy)benzonitrile]	1 to 10	
Cc1cc(Cl)cc(-c2ccnc3cc(Cn4c(=O)c(F)cn(CC(F)(F)F)c4=O)sc23)c1O[C@H]1CCCNC1 [Example 555, 3-[[7-[5-chloro-3-methyl-2-[[(3S)-3-piperidyl]oxy]phenyl]thieno[3,2-b]pyridin-2-yl]methyl]-5-fluoro-1-(2,2,2-trifluoroethyl)pyrimidine-2,4-dione]		IC50 [1]: < 1 µM
Cc1cc(Cl)cc(-c2ccnc3cc(CN4C(=O)CCC4=O)sc23)c1O[C@@H]1C[C@H]2CN[C@@H]1C2 [Example 298, 1-[[7-[2-[[(1S,4R,5R)-3-azabicyclo[2.2.1]heptan-5-yl]oxy]-5-chloro-3-methyl-phenyl]thieno[3,2-b]pyridin-2-yl]methyl]pyrrolidine-2,5-dione]	< 1	
Cc1cc(Cl)cc(-c2ccnc3cc([C@H](C)N4C(=O)CCC4=O)sc23)c1O[C@@H]1CNC[C@@H]1F [Example 117, 1-((S)-1-(7-(5-Chloro-2-(((3R,4S)-4-fluoropyrrolidin-3-yl)oxy)-3-methylphenyl)thieno[3,2-b]pyridin-2-yl)ethyl)pyrrolidine-2,5-dione]	< 1	
Cc1cc(Cl)cc(-c2ncnc3cc(CN4C(=O)C5C(C4=O)C5(C)C)sc23)c1OC1CNCC1(C)C (stereo not drawn) [Example 371, 3-[[4-[5-chloro-2-(4,4-dimethylpyrrolidin-3-yl)oxy-3-methyl-phenyl]thieno[3,2-d]pyrimidin-6-yl]methyl]-6,6-dimethyl-3-azabicyclo[3.1.0]hexane-2,4-dione]	< 1	
Cc1cc(Cl)cc(-c2ccnc3cc(Cn4c(=O)ccn(CC(F)(F)F)c4=O)sc23)c1O[C@@H]1CCCN[C@@H]1C [Example 621, 3-[[7-[5-chloro-3-methyl-2-[[(2R,3R)-2-methyl-3-piperidyl]oxy]phenyl]thieno[3,2-b]pyridin-2-yl]methyl]-1-(2,2,2-trifluoroethyl)pyrimidine-2,4-dione; 2,2,2-trifluoroacetic acid]		IC50 [1]: < 1 µM
Cc1cc(Cl)cc(-c2ccnc3cc(Cn4c(=O)ccn(C)c4=O)sc23)c1OC1CC(N2CCOCC2)C1 (stereo not drawn) [Example 516]		IC50 [1]: < 1 µM
CCC(O)c1cc2nccc(-c3cc(Cl)cc(C)c3O[C@H]3CCNC3)c2s1 (stereo partly drawn) [Example 50, 1-(7-(5-Chloro-3-methyl-2-(((S)-pyrrolidin-3-yl)oxy)phenyl)thieno[3,2-b]pyridin-2-yl)propan-1-ol]	1 to 10	
Cc1cc(Cl)cc(-c2ccnc3cc(Cn4c(=O)ccn(CC(F)(F)F)c4=O)sc23)c1O[C@H]1C[C@H](N2CCOCC2)C1 [Example 278, 3-((7-(5-Chloro-3-methyl-2-((1r,3r)-3-morpholinocyclobutoxy)phenyl)thieno[3,2-b]pyridin-2-yl)methyl)-1-(2,2,2-trifluoroethyl)pyrimidine-2,4(1H,3H)-dione]	< 1	
CO[C@@H]1CNC[C@@H]1Oc1c(C)cc(Cl)cc1-c1ccnc2cc(CO)sc12 [Example 66, (7-(5-Chloro-2-(((3S,4R)-4-methoxypyrrolidin-3-yl)oxy)-3-methylphenyl)thieno[3,2-b]pyridin-2-yl)methanol]	10 to 30	
